Laboratory results taken from patent publication US5625056A, “Derivatives of cyclic guanosine-3',5'-monophosphorothioate” (BIOLOG Life Science Institute, priority 1992, dated 1997).
Blank lines part the entries; values can stand above or below the compound they belong to.

Tests used:
[1] = reversed-phase HPLC; has been reported; cited from earlier work
physchem = settings: reversed-phase hplc
[2] = target: T1, cGMP-dependent protein kinases (Bos taurus, UniProt P00516); settings: background literature (Butt et al. 1990); cited from earlier work
T1 construct: Isolation of cGK I from bovine lung; from tissue; host or cells: bovine lung
T1 sequence (P00516 2-671 limits assumed): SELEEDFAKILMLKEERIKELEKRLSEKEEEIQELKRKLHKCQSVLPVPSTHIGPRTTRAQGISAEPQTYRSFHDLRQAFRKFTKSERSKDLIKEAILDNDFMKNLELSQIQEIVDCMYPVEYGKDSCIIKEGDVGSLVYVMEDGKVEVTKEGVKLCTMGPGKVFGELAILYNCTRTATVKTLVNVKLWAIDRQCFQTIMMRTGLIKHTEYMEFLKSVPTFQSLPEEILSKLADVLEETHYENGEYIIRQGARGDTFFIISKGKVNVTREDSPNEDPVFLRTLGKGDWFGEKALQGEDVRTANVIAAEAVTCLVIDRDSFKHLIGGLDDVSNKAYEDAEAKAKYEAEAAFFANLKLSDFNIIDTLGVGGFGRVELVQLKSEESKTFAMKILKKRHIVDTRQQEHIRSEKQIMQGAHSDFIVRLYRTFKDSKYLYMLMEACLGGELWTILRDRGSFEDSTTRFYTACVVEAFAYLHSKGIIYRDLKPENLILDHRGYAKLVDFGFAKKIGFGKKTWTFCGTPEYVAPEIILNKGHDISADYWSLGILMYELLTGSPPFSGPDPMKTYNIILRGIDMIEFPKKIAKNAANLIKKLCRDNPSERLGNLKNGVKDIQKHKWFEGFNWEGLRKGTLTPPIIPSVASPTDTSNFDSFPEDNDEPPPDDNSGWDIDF

cAK = settings: cited from earlier work
[3] = system: cAMP-dependent protein kinases type I (cAK I); settings: Botelho et al. 1988; cited from earlier work
[4] = system: cAMP-dependent protein kinases type II (cAK II); settings: Botelho et al. 1988; cited from earlier work
[5] = target: T1, cGMP-dependent protein kinases; assay: Inhibition/activation of cGMP-dependent protein kinase (cGK); assay type: biochemical, bovine
Method: (§1) Isolation of cGK I from bovine lung and of cAK II from bovine heart is performed as has been already published (Walter et al., J. Biol. Chem., 255, 3757-3762 (1980)). Protein kinase activity is determined according to the method of Roskoski (Methods Enzymol., 99, 3-6 (1983)). In vitro data on membranes of human thrombocytes are obtained as has already been described by Halbrugge et al. (Eur. J. Biochem., 185, 41-50, (1989)).

[6] = system: cGMP-dependent phosphorylation in intact human thrombocytes; assay: cGMP-dependent phosphorylation in intact human thrombocytes (in vivo); assay type: cell-based
Method: (§2) Compounds with extraordinary good membrane permeability are tested in vivo with intact human thrombocytes according to Halbrugge et al. CJ. Biol. Chem., 265, 3088-3093 (1990)).

[7] = system: phosphorylation of a 46/50 kDa-band in membranes of human thrombocytes; assay: cGMP-modulated phosphorylation of a 46/50 kDa band in membranes of human thrombocytes; assay type: biochemical
Method: as §1, §2

[8] = system: cGMP signal transduction pathway; assay: Selective block of the cGMP signal transduction pathway; settings: selectivity over cAMP-mediated effects
perfused aorta muscle = assay: SIN 1-stimulated relaxation in perfused aorta muscle
[9] = system: cGMP-dependent phosphorylation of three proteins of the masses 46, 50 and 130 kDa; assay: cGMP-dependent phosphorylation of three proteins of 46, 50 and 130 kDa
cGK I = target: T2, cGK I (Bos taurus, UniProt P00516); assay: Inhibition of isolated cGK I; assay type: biochemical, bovine
T2 construct: Isolation of cGK I from bovine lung; from tissue; host or cells: bovine lung
T2 sequence (P00516 1-671): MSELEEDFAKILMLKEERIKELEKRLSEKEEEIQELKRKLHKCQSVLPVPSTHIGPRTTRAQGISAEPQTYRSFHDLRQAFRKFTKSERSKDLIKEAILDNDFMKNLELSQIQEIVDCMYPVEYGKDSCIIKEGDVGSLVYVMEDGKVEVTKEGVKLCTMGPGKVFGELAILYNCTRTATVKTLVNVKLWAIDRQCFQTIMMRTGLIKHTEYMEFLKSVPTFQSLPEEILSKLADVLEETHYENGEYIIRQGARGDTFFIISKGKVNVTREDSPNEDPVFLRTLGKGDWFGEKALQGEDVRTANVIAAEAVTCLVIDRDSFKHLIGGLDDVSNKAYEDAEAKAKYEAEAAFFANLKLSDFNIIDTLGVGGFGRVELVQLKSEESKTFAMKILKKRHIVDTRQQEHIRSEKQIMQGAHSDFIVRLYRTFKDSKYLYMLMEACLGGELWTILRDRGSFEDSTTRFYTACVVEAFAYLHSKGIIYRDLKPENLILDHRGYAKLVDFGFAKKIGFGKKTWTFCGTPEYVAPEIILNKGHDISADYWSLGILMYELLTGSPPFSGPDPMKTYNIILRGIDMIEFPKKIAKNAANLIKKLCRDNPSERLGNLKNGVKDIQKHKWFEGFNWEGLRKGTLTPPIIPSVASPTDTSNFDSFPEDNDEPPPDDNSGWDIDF
Method: as §1

cAK II = target: T3, cAK II (Bos taurus, UniProt P00515); assay: Activation of cAK II; assay type: biochemical, bovine; settings: at high concentrations
T3 construct: of cAK II from bovine heart; from tissue; host or cells: bovine heart
T3 sequence (P00515 2-401 limits assumed): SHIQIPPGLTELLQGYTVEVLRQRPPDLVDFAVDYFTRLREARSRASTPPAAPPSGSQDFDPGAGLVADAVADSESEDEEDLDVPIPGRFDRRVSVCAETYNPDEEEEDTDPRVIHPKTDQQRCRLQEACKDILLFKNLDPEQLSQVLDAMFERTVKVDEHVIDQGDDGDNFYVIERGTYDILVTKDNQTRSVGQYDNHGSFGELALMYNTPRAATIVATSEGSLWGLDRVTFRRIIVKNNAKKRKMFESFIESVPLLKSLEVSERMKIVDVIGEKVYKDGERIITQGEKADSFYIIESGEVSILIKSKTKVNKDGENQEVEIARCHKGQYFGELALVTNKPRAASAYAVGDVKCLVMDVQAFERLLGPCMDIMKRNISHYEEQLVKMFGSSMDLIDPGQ
Method: as §1

[10] = system: cAMP-dependent phosphorylation of a 22- and a 240 kDa-band; assay: cAMP-dependent phosphorylation of 22 and 240 kDa bands in membranes of human thrombocytes; assay type: biochemical
Method: as §1, §2

[11] = system: cGMP-inhibited phosphodieserases (cGI-PDE); assay: Inhibition of cGMP-inhibited phosphodiesterases (cGI-PDE); assay type: biochemical
[12] = Cell membrane permeability; assay type: in vitro ADME

chromatographic logP (physchem): 0.77
Structure (SMILES): Nc1nc2c(ncn2[C@@H]2O[C@@H]3COP(=O)(O)O[C@H]3[C@H]2O)c(=O)[nH]1 [cGMP, guanosine-3',5'-monophosphate, reference compound]
log KW [1]: 0.85

Structure (SMILES): Nc1nc2c(ncn2[C@@H]2O[C@@H]3CO[P@@](O)(=S)O[C@H]3[C@H]2O)c(=O)[nH]1 [RP -cGMPS, RP -Guanosine-3',5'-monophosphorothioate]
inhibitory properties / specificity for cGK [2]: lacks the required specificity for cGMP-dependent protein kinase (cGK)
inhibition/agonism of cAK (cAK; background literature): inhibits cAK as well

Structure (SMILES): Nc1ncnc2c1ncn2[C@@H]1O[C@@H]2CO[P@@](O)(=S)O[C@H]2[C@H]1O [RP -cAMPS, adenosine-3',5'-monophosphorothioate]
inhibition of cAK I [3]: competitive inhibitor
inhibition of cAK II [4]: competitive inhibitor
cAMP antagonism (cAK; Botelho et al. 1988): antagonist of cAMP

activation of isolated cGK ([5]; isolated cGK): activator
chromatographic logP (physchem): 2.84
Structure (SMILES): Nc1nc2c(nc(Sc3ccc(Cl)cc3)n2[C@@H]2O[C@@H]3CO[P@](O)(=S)O[C@H]3[C@H]2O)c(=O)[nH]1 [SP -8-pCPT-cGMPS, Cyclic 8-(4-chlorophenylthio)-guanosine-3',5'-monophosphorothioate, SP -diastereomer]
cGMP-dependent (cGMP-mediated) phosphorylation [6]: activator

Structure (SMILES): O=c1c2ncn([C@@H]3O[C@@H]4CO[P@@](O)(=S)O[C@H]4[C@H]3O)c2[nH]c2nc(-c3ccccc3)cn12 [RP -PET-cGMPS, Cyclic β-phenyl-1,N^2-ethenoguanosine-3',5'-monophosphorothioate, RP -diastereomer]
chromatographic logP (physchem): 2.81

Structure (SMILES): O=c1c2nc(Br)n([C@@H]3O[C@@H]4CO[P@@](O)(=S)O[C@H]4[C@H]3O)c2nc2[nH]c(-c3ccccc3)cn12 [RP -8-Br-PET-cGMPS, Cyclic β-phenyl-1,N^2-etheno-8-bromoguanosine-3',5'-monophosphorothioate, RP -diastereomer]
type of inhibition of cGMP-dependent protein kinases [5]: competitive inhibitor
Ki ([5]; cGMP-dependent protein kinases, competitive inhibitor, read-out: inhibition constant Ki): 30 nM
effectivity at thrombocyte membranes, factor over RP -8-pCPT-cGMPS ([7]; thrombocyte membranes, relative to RP -8-pCPT-cGMPS): 5-10
block of cGMP signal transduction pathway [8]: blocks selectively the cGMP signal transduction pathway without affecting cAMP-mediated effects
SIN 1-stimulated relaxation (perfused aorta muscle): inhibited
cGMP-dependent phosphorylation of three proteins [9]: inhibited
chromatographic logP (physchem): 3.22

Structure (SMILES): O=c1c2ncn([C@@H]3O[C@@H]4CO[P@](O)(=S)O[C@H]4[C@H]3O)c2[nH]c2nc(-c3ccccc3)cn12 [SP -PET-cGMPS, Cyclic β-phenyl-1,N^2-ethenoguanosine-3',5'-monophosphorothioate, SP -diastereomer]
chromatographic logP (physchem): 2.83

type of inhibition of isolated cGK I (cGK I; isolated cGK I): competitive inhibitor
Ki (cGK I; read-out: inhibition constant Ki): 700 nM
agonism for cAK II (cAK II): weakly partial agonist
cell membrane permeability [12]: excellent cell membrane permeability
chromatographic logP (physchem): 2.82
Structure (SMILES): Nc1nc2c(nc(Sc3ccc(Cl)cc3)n2[C@@H]2O[C@@H]3CO[P@@](O)(=S)O[C@H]3[C@H]2O)c(=O)[nH]1 [RP -8-pCPT-cGMPS, Cyclic 8-(4-chlorophenylthio)-guanosine-3',5'-monophosphorothioate, RP -diastereomer]
phosphorylation of a 46/50 kDa-band ([7]; membranes of human thrombocytes): inhibits the phosphorylation
cAMP-dependent phosphorylation of a 22- and a 240 kDa-band [10]: not disturbed
cGMP-dependent (cGMP-mediated) phosphorylation [6]: inhibits the cGMP-dependent phosphorylation even in intact human thrombocytes
inhibition of cGI-PDE [11]: poor inhibitor
